{
  "source": "paper PMC9234961",
  "about": "(Journal of Medicinal Chemistry, 2022)",
  "key": {"kinases (468) [1]": {"target": "kinases (468) (Homo sapiens, UniProt Q15569)", "conditions": "kinase TESK1 (Entrez TESK1); compound concentration 1000 nM"}, "kinases (468) [2]": {"target": "kinases (468) (Homo sapiens, UniProt Q99759)", "conditions": "MAP3K3; 1000 nM"}, "kinases (468) [3]": {"target": "kinases (468) (Homo sapiens, UniProt Q9H4B4)", "sequence (Q9H4B4 whole entry)": "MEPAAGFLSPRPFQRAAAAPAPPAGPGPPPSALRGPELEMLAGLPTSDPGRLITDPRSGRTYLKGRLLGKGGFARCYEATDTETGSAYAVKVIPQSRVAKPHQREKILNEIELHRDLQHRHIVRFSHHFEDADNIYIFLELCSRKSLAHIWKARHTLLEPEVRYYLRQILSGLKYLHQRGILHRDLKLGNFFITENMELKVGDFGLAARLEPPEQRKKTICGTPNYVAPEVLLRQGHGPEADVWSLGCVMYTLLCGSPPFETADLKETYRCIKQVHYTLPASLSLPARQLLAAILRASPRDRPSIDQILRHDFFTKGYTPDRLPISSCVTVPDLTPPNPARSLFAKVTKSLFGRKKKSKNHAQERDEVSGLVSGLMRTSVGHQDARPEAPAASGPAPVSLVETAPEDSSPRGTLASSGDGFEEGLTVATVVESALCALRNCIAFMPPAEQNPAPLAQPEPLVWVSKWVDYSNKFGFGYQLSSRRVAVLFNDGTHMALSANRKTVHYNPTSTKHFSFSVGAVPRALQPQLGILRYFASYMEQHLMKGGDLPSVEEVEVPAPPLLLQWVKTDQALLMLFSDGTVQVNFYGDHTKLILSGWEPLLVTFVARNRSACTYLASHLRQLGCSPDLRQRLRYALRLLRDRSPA", "conditions": "PLK3; 1000 nM"}, "kinases (468) [4]": {"target": "kinases (468) (Homo sapiens, UniProt P22694)", "conditions": "PKAC-beta (PRKACB); 1000 nM"}, "kinases (468) [5]": {"target": "kinases (468) (Homo sapiens, UniProt Q9UEW8)", "conditions": "kinase STK39 (Entrez STK39); compound concentration 1000 nM"}, "kinases (468) [6]": {"target": "kinases (468) (Homo sapiens, UniProt Q13976)", "sequence (Q13976 whole entry)": "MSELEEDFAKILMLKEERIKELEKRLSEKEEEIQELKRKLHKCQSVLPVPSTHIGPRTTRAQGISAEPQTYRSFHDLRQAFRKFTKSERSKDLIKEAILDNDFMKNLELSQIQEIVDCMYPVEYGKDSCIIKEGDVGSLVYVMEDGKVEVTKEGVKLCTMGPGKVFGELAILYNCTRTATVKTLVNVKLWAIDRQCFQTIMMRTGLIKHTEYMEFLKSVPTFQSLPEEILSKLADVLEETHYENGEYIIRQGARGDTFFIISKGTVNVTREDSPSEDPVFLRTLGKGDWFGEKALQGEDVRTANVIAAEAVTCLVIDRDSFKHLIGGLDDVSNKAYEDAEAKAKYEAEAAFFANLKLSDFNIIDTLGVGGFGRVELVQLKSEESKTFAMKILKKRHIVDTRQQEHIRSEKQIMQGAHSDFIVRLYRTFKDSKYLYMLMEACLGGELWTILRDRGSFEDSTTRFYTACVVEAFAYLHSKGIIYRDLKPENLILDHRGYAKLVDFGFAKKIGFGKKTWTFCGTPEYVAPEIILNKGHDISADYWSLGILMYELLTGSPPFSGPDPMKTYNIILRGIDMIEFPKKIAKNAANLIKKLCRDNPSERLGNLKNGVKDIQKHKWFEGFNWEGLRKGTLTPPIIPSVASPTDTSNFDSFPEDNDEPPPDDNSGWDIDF", "conditions": "PRKG1; 1000 nM"}, "kinases (468) [7]": {"target": "kinases (468) (Homo sapiens, UniProt Q00537)", "conditions": "PCTK2 (CDK17); 1000 nM"}, "kinases (468) [8]": {"target": "kinases (468) (Homo sapiens, UniProt Q12866)", "sequence (Q12866 21-999)": "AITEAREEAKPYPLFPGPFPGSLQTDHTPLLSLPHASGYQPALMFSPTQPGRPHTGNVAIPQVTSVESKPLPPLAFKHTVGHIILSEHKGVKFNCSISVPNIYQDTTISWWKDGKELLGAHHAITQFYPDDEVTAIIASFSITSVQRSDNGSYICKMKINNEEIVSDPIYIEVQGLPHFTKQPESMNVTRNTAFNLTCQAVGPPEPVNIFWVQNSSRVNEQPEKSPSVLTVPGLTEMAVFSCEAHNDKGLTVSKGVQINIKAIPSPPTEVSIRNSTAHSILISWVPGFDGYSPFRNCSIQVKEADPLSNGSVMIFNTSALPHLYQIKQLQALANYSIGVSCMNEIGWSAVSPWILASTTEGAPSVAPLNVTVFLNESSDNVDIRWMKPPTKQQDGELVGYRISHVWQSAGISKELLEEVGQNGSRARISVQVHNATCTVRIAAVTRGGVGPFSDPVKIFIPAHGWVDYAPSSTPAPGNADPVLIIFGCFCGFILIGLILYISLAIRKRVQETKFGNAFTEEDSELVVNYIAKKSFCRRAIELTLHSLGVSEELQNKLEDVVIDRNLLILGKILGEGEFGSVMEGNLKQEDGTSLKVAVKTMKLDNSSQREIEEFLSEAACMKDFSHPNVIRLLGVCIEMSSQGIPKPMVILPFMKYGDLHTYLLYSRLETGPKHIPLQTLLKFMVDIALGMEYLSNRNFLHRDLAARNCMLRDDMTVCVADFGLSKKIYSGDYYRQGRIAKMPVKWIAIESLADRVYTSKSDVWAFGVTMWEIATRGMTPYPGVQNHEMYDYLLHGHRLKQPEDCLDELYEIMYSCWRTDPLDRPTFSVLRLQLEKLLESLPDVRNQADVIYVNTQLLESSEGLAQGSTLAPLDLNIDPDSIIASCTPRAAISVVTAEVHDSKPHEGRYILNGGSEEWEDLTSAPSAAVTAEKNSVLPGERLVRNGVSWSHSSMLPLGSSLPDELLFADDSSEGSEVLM", "conditions": "MERTK; 1000 nM"}, "kinases (468) [9]": {"target": "kinases (468) (Homo sapiens, UniProt Q96RR4)", "conditions": "CAMKK2; 1000 nM"}, "kinases (468) [10]": {"target": "kinases (468) (Homo sapiens, UniProt P29323)", "conditions": "EPHB2; 1000 nM"}, "kinases (468) [11]": {"target": "kinases (468) (Homo sapiens, UniProt Q9Y2I7)", "conditions": "PIKFYVE; 1000 nM"}, "kinases (468) [12]": {"target": "kinases (468) (Homo sapiens, UniProt Q15375)", "conditions": "EPHA7; 1000 nM"}, "kinases (468) [13]": {"target": "kinases (468) (Homo sapiens, UniProt Q9NYL2)", "conditions": "kinase ZAK (Entrez ZAK); compound concentration 1000 nM"}, "kinases (468) [14]": {"target": "kinases (468) (Homo sapiens, UniProt Q13554)", "conditions": "CAMK2B; 1000 nM"}, "kinases (468) [15]": {"target": "kinases (468) (Homo sapiens, UniProt P19784)", "conditions": "CSNK2A2; 1000 nM"}, "kinases (468) [16]": {"target": "kinases (468) (Homo sapiens, UniProt Q52WX2)", "sequence (Q52WX2 whole entry)": "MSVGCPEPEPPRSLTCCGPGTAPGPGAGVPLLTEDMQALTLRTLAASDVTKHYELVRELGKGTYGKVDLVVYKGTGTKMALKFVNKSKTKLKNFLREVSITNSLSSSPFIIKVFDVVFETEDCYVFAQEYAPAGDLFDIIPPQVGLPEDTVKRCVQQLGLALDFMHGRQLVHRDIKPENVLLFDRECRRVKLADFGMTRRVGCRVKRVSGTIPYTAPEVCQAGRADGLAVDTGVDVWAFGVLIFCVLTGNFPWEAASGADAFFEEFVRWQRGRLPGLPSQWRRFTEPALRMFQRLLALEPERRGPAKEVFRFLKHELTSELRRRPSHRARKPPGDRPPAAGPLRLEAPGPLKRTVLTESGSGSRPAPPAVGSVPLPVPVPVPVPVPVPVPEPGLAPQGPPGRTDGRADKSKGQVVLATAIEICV", "conditions": "kinase SBK1 (Entrez SBK1); compound concentration 1000 nM"}, "kinases (468) [17]": {"target": "kinases (468) (Homo sapiens, UniProt Q92918)", "conditions": "HPK1 (MAP4K1); 1000 nM"}, "kinases (468) [18]": {"target": "kinases (468) (Homo sapiens, UniProt Q15349)", "sequence (Q15349 whole entry)": "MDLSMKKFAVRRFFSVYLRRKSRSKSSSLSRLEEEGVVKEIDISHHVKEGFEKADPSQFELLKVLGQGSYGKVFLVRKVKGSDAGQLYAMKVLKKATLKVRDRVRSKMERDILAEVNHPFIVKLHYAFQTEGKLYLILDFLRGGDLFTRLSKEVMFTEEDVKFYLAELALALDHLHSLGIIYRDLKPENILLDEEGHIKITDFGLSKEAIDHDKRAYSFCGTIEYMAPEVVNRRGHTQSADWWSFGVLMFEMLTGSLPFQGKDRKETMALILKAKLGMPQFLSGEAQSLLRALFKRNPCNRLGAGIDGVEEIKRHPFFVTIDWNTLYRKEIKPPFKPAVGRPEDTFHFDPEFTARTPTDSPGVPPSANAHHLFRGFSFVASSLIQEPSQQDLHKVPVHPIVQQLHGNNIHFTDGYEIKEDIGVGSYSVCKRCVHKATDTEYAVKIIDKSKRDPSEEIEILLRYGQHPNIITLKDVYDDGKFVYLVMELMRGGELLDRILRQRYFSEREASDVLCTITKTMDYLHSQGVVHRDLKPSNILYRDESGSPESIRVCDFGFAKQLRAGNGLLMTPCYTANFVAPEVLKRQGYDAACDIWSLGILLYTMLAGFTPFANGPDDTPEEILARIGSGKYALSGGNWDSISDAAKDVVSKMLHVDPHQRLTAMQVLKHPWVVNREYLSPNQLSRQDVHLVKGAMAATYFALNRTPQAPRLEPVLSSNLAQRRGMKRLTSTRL", "conditions": "compound concentration 1000 nM"}, "kinases (468) [19]": {"target": "kinases (468) (Homo sapiens, UniProt O94806)", "conditions": "PRKD3; 1000 nM"}, "kinases (468) [20]": {"target": "kinases (468) (Homo sapiens, UniProt Q13164)", "sequence (Q13164 whole entry)": "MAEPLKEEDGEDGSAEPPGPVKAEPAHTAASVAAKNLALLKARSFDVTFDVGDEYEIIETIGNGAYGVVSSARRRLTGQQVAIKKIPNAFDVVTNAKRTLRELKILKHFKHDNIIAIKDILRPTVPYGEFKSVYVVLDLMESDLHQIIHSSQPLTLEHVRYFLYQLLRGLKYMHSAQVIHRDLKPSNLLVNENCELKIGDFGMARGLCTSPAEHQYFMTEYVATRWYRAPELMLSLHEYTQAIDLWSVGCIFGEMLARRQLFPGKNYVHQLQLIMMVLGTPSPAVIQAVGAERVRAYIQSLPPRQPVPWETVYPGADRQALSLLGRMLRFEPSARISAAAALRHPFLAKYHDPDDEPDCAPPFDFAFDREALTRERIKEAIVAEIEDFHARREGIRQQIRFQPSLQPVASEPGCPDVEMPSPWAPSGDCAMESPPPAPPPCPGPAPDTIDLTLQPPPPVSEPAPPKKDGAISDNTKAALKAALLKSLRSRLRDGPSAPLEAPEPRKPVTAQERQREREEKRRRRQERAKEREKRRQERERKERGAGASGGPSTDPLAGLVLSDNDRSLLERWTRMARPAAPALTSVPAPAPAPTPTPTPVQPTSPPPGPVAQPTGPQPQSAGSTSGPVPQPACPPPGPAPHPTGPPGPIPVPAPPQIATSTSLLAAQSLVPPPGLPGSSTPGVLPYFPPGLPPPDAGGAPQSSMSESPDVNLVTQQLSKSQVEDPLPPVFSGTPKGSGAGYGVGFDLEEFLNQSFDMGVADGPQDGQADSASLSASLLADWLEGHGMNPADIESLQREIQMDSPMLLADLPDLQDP", "conditions": "ERK5 (MAPK7); 1000 nM"}, "kinases (468) [21]": {"target": "kinases (468) (Homo sapiens, UniProt P12931)", "conditions": "kinase SRC (Entrez SRC); compound concentration 1000 nM"}, "kinases (468) [22]": {"target": "kinases (468) (Homo sapiens, UniProt O14733)", "conditions": "MKK7 (MAP2K7); 1000 nM"}, "kinases (468) [23]": {"target": "kinases (468) (Homo sapiens, UniProt P36888, D835V)", "conditions": "FLT3(D835V); 1000 nM"}, "kinases (468) [24]": {"target": "kinases (468) (Homo sapiens, UniProt Q9UQ88)", "conditions": "CDC2L2; 1000 nM"}, "kinases (468) [25]": {"target": "kinases (468) (Homo sapiens, UniProt P22607)", "conditions": "FGFR3; 1000 nM"}, "kinases (468) [26]": {"target": "kinases (468) (Homo sapiens, UniProt O95382)", "conditions": "ASK2 (MAP3K6); 1000 nM"}, "kinases (468) [27]": {"target": "kinases (468) (Homo sapiens, UniProt Q15746)", "conditions": "MYLK; 1000 nM"}, "kinases (468) [28]": {"target": "kinases (468) (Homo sapiens, UniProt Q86Z02)", "conditions": "HIPK1; 1000 nM"}, "kinases (468) [29]": {"target": "kinases (468) (Homo sapiens, UniProt O43318)", "conditions": "kinase TAK1 (Entrez MAP3K7); compound concentration 1000 nM"}, "kinases (468) [30]": {"target": "kinases (468) (Homo sapiens, UniProt P04629)", "sequence (P04629 33-796)": "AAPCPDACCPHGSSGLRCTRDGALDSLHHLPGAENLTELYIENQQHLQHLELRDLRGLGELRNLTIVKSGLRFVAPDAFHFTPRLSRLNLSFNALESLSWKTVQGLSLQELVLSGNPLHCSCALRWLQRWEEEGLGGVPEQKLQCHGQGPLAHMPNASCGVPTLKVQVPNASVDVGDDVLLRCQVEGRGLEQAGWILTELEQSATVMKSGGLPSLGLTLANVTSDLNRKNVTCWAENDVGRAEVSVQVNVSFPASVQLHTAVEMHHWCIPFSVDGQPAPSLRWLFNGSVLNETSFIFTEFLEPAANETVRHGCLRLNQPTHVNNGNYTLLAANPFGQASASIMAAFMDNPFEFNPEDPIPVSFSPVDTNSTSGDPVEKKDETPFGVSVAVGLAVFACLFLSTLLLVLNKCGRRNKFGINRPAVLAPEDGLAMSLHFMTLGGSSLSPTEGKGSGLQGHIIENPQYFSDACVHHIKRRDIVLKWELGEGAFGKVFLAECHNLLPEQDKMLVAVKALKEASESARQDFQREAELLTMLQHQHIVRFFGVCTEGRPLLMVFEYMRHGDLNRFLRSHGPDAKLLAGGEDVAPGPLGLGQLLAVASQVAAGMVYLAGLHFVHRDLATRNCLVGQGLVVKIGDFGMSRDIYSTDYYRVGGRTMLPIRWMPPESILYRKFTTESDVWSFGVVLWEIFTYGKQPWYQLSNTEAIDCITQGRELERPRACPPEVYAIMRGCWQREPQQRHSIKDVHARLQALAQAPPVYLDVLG", "conditions": "kinase TRKA (Entrez NTRK1); compound concentration 1000 nM"}, "kinases (468) [31]": {"target": "kinases (468) (Homo sapiens, UniProt P16234)", "conditions": "PDGFRA; 1000 nM"}, "kinases (468) [32]": {"target": "kinases (468) (Homo sapiens, UniProt Q12852)", "conditions": "DLK (MAP3K12); 1000 nM"}, "kinases (468) [33]": {"target": "kinases (468) (Homo sapiens, UniProt Q13627)", "conditions": "DYRK1A; 1000 nM"}, "kinases (468) [34]": {"target": "kinases (468) (Homo sapiens, UniProt Q92630)", "conditions": "DYRK2; 1000 nM"}},
  "note": "Where two headings read alike, the source gives them in different places.",
  "data": [
    {"smiles": "C[C@H]1C[C@@H](O)CN(c2ncc(Cl)c(Nc3ccc4c(c3)c3c(c(=O)n4C)OCC(F)(F)[C@H](C4CC4)N3)n2)C1", "note": "[CCT373566_9A]", "values": [
      {"measurement": "Percent Control", "setting": "kinases (468) [1]", "value": 100, "unit": "%"},
      {"measurement": "Percent Control", "setting": "kinases (468) [2]", "value": 100, "unit": "%"},
      {"measurement": "Percent Control", "setting": "kinases (468) [3]", "value": 78, "unit": "%"},
      {"measurement": "Percent Control", "setting": "kinases (468) [4]", "value": 80, "unit": "%"},
      {"measurement": "Percent Control", "setting": "kinases (468) [5]", "value": 98, "unit": "%"},
      {"measurement": "Percent Control", "setting": "kinases (468) [6]", "value": 96, "unit": "%"},
      {"measurement": "Percent Control", "setting": "kinases (468) [7]", "value": 95, "unit": "%"},
      {"measurement": "Percent Control", "setting": "kinases (468) [8]", "value": 96, "unit": "%"},
      {"measurement": "Percent Control", "setting": "kinases (468) [9]", "value": 88, "unit": "%"},
      {"measurement": "Percent Control", "setting": "kinases (468) [10]", "value": 96, "unit": "%"},
      {"measurement": "Percent Control", "setting": "kinases (468) [11]", "value": 83, "unit": "%"},
      {"measurement": "Percent Control", "setting": "kinases (468) [12]", "value": 100, "unit": "%"},
      {"measurement": "Percent Control", "setting": "kinases (468) [13]", "value": 98, "unit": "%"},
      {"measurement": "Percent Control", "setting": "kinases (468) [14]", "value": 76, "unit": "%"},
      {"measurement": "Percent Control", "setting": "kinases (468) [15]", "value": 100, "unit": "%"},
      {"measurement": "Percent Control", "setting": "kinases (468) [16]", "value": 99, "unit": "%"},
      {"measurement": "Percent Control", "setting": "kinases (468) [17]", "value": 82, "unit": "%"},
      {"measurement": "Percent Control", "setting": "kinases (468) [18]; kinase RSK3(Kin.Dom.1-N-terminal) (Entrez RPS6KA2)", "value": 100, "unit": "%"},
      {"measurement": "Percent Control", "setting": "kinases (468) [18]; kinase RSK3(Kin.Dom.2-C-terminal) (Entrez RPS6KA2)", "value": 83, "unit": "%"},
      {"measurement": "Percent Control", "setting": "kinases (468) [19]", "value": 75, "unit": "%"},
      {"measurement": "Percent Control", "setting": "kinases (468) [20]", "value": 97, "unit": "%"},
      {"measurement": "Percent Control", "setting": "kinases (468) [21]", "value": 100, "unit": "%"},
      {"measurement": "Percent Control", "setting": "kinases (468) [22]", "value": 91, "unit": "%"},
      {"measurement": "Percent Control", "setting": "kinases (468) [23]", "value": 90, "unit": "%"},
      {"measurement": "Percent Control", "setting": "kinases (468) [24]", "value": 97, "unit": "%"},
      {"measurement": "Percent Control", "setting": "kinases (468) [25]", "value": 100, "unit": "%"},
      {"measurement": "Percent Control", "setting": "kinases (468) [26]", "value": 98, "unit": "%"},
      {"measurement": "Percent Control", "setting": "kinases (468) [27]", "value": 91, "unit": "%"},
      {"measurement": "Percent Control", "setting": "kinases (468) [28]", "value": 98, "unit": "%"},
      {"measurement": "Percent Control", "setting": "kinases (468) [29]", "value": 100, "unit": "%"},
      {"measurement": "Percent Control", "setting": "kinases (468) [30]", "value": 100, "unit": "%"},
      {"measurement": "Percent Control", "setting": "kinases (468) [31]", "value": 95, "unit": "%"},
      {"measurement": "Percent Control", "setting": "kinases (468) [32]", "value": 96, "unit": "%"},
      {"measurement": "Percent Control", "setting": "kinases (468) [33]", "value": 95, "unit": "%"},
      {"measurement": "Percent Control", "setting": "kinases (468) [34]", "value": 91, "unit": "%"}
    ]}
  ]
}
